Measurements published in ChEMBL document CHEMBL5500413, “Discovery of Novel Receptor Tyrosine Kinase-like Orphan Receptor 1 (ROR1) Inhibitors for Cancer Treatment” (J Med Chem, 2024).

Columns and labels:
[1] = biological target: Inactive tyrosine-protein kinase transmembrane receptor ROR1 (Homo sapiens, UniProt Q01973); experiment: Binding affinity to ROR1 kinase domain (453 to 783 residues) (unknown origin) assessed as dissociation constant by SPR analysis
NCI-H1975 = experiment: Antiproliferative activity against human NCI-H1975 cells harboring high ROR1 expression assessed as inhibition of cell growth incubated for 72 hrs by MTT assay; type: functional, cell-based; conditions: NCI-H1975, 72 h
MDA-MB-231 = experiment: Antiproliferative activity against human MDA-MB-231 cells harboring high ROR1 expression assessed as inhibition of cell growth incubated for 72 hrs by MTT assay; type: functional, cell-based; conditions: MDA-MB-231, 72 h
A549 = experiment: Antiproliferative activity against human A549 cells harboring high ROR1 expression assessed as inhibition of cell growth incubated for 72 hrs by MTT assay; type: functional, cell-based; conditions: A549, 72 h

Chain of Inactive tyrosine-protein kinase transmembrane receptor ROR1 (Q01973 whole entry, the tested form may be a part): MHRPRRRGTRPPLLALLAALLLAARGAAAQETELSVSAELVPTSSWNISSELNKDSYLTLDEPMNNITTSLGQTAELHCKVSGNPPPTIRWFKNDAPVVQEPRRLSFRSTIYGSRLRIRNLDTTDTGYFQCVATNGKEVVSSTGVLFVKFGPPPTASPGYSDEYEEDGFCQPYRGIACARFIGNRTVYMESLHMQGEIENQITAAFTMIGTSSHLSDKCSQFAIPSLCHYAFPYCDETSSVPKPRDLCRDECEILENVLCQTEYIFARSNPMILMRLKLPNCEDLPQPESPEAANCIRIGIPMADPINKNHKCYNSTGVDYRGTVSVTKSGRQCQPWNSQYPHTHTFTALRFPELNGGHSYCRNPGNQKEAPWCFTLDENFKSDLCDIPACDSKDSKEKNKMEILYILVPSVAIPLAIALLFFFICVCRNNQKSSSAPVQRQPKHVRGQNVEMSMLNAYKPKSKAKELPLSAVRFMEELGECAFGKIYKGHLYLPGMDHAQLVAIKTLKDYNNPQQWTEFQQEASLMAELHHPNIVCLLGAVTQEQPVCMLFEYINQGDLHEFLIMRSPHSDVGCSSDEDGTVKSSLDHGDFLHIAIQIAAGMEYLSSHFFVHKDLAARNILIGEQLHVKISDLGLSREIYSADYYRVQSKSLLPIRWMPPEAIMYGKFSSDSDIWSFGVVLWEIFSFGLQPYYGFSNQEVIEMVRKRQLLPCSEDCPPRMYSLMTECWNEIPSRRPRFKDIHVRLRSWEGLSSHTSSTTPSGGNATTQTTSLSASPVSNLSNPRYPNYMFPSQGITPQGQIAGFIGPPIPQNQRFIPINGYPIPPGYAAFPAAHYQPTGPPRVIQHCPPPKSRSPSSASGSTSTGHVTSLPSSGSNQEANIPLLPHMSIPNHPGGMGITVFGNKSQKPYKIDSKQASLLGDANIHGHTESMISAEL

Kd [1]: 8.25 µM
IC50 (NCI-H1975): 66.7 µM
IC50 (MDA-MB-231): 31.3 µM
IC50 (A549): 27.5 µM
SMILES: Cc1ccc(C(=O)Nc2cccc(N(C)C)c2)cc1C#Cc1cnc2cccnn12
